# Experimental data taken from ChEMBL document CHEMBL4359906, “Design and synthesis of new N-terminal fatty acid modified-antimicrobial peptide analogues with potent in vitro biological activity” (Eur J Med Chem, 2019).
# Calls of active or inactive are those of the source. No cut-off for these calls is given here. Where a SMILES comes first, the peptide text is derived from it. Bridges are numbered along the chain shown (N, C = ends). [ ]: non-standard residue; d: D form. The star is where a group is joined. X1 = CC[C@H](C)CCCCC(=O)*; Dab = NCC[C@H](N)C(=O)O
# Key:
# Klebsiella pneumoniae = assay: Antibacterial activity against Klebsiella pneumoniae ATCC 700603 after 18 hrs by CLSI based broth microdilution method; format: functional
# Staphylococcus aureus [1] = assay: Antibacterial activity against methicillin-resistant Staphylococcus aureus 936 after 18 hrs by CLSI based broth microdilution method; format: functional; details: Staphylococcus aureus, 936, 18 h
# Staphylococcus aureus [2] = assay: Antibacterial activity against Staphylococcus aureus ATCC 25923 after 18 hrs by CLSI based broth microdilution method; format: functional; details: ATCC 25923, 18 h
# Pseudomonas aeruginosa = assay: Antibacterial activity against Pseudomonas aeruginosa ATCC 27853 after 18 hrs by CLSI based broth microdilution method; format: functional
# Bacillus subtilis = assay: Antibacterial activity against Bacillus subtilis ATCC 23857 after 18 hrs by CLSI based broth microdilution method; format: functional; details: ATCC 23857, 18 h
# Escherichia coli [3] = assay: Antibacterial activity against Escherichia coli ATCC 43837 after 18 hrs by CLSI based broth microdilution method; format: functional
# Escherichia coli [4] = assay: Antibacterial activity against Escherichia coli ATCC 25922 after 18 hrs by CLSI based broth microdilution method; format: functional
# Staphylococcus aureus [5] = assay: Ratio of antibacterial activity against Staphylococcus aureus ATCC 25923 in presence of KCl to antibacterial activity against Staphylococcus aureus ATCC 25923; format: functional
# Escherichia coli [6] = assay: Ratio of antibacterial activity against Escherichia coli ATCC 25922 in presence of FeCl3 to antibacterial activity against Escherichia coli ATCC 25922; format: functional
# Escherichia coli [7] = assay: Ratio of antibacterial activity against Escherichia coli ATCC 25922 in presence of KCl to antibacterial activity against Escherichia coli ATCC 25922; format: functional
# Staphylococcus aureus [8] = assay: Ratio of antibacterial activity against Staphylococcus aureus ATCC 25923 in presence of NaCl to antibacterial activity against Staphylococcus aureus ATCC 25923; format: functional
# Escherichia coli [9] = assay: Induction of ROS generation in Escherichia coli ATCC 25922; format: functional, organism-based
# Escherichia coli [10] = assay: Induction of membrane disruption in Escherichia coli ATCC 25922 assessed as fracture in membrane at 4 times of MIC after 2 hrs by SEM analysis; format: functional, organism-based
# Staphylococcus aureus [11] = assay: Ratio of antibacterial activity against Staphylococcus aureus ATCC 25923 in presence of FeCl3 to antibacterial activity against Staphylococcus aureus ATCC 25923; format: functional
# Staphylococcus aureus [12] = assay: Antibacterial activity against Staphylococcus aureus ATCC 25923 after 18 hrs in presence of KCl by CLSI based broth microdilution method (reference value: 16 microM); format: functional; details: ATCC 25923, 18 h
# Escherichia coli [13] = assay: Induction of membrane disruption in Escherichia coli ATCC 25922 assessed as corrugated membrane surface at 4 times of MIC after 2 hrs by SEM analysis; format: functional, organism-based
# Staphylococcus aureus [14] = assay: Antibiofilm activity against Staphylococcus aureus ATCC 25923 at 1 to 2 times of MIC after 24 hrs by crystal violet staining based assay; format: functional, organism-based
# Staphylococcus aureus [15] = assay: Antibacterial activity against Staphylococcus aureus ATCC 25923 after 18 hrs in presence of MgCl2 by CLSI based broth microdilution method (reference value: 16 microM); format: functional; details: ATCC 25923, 18 h
# Escherichia coli [16] = assay: Antibacterial activity against Escherichia coli ATCC 25922 after 18 hrs in presence of FeCl3 by CLSI based broth microdilution method (reference value: 4 microM); format: functional; details: ATCC 25922, 18 h
# Escherichia coli [17] = assay: Ratio of antibacterial activity against Escherichia coli ATCC 25922 in presence of MgCl2 to antibacterial activity against Escherichia coli ATCC 25922; format: functional
# Escherichia coli [18] = assay: Disruption of membrane integrity in Escherichia coli ATCC 25922 assessed as membrane damage by measuring PI fluorescence at 2 times of MIC incubated for 1 hr by PI dye based flow cytometric analysis (reference value: 1.35%); format: functional
# Staphylococcus aureus [19] = assay: Antibacterial activity against Staphylococcus aureus ATCC 25923 after 18 hrs in presence of FeCl3 by CLSI based broth microdilution method (reference value: 16 microM); format: functional; details: ATCC 25923, 18 h
# Staphylococcus aureus [20] = assay: Ratio of antibacterial activity against Staphylococcus aureus ATCC 25923 in presence of MgCl2 to antibacterial activity against Staphylococcus aureus ATCC 25923; format: functional
# Escherichia coli [21] = assay: Antibacterial activity against Escherichia coli ATCC 25922 after 18 hrs in presence of NaCl by CLSI based broth microdilution method (reference value: 4 microM); format: functional; details: ATCC 25922, 18 h
# Escherichia coli [22] = assay: Disruption of membrane integrity in Escherichia coli ATCC 25922 assessed as membrane damage by measuring PI fluorescence at 4 times of MIC incubated for 1 hr by PI dye based flow cytometric analysis (reference value: 1.35%); format: functional
# Escherichia coli [23] = assay: Antibacterial activity against Escherichia coli ATCC 25922 after 18 hrs in presence of KCl by CLSI based broth microdilution method (reference value: 4 microM); format: functional; details: ATCC 25922, 18 h
# Escherichia coli [24] = assay: Induction of membrane disruption in Escherichia coli ATCC 25922 assessed as degeneration in membrane at 4 times of MIC after 2 hrs by SEM analysis; format: functional, organism-based
# Staphylococcus aureus [25] = assay: Antibacterial activity against Staphylococcus aureus ATCC 25923 after 18 hrs in presence of NaCl by CLSI based broth microdilution method (reference value: 16 microM); format: functional; details: ATCC 25923, 18 h
# Escherichia coli [26] = assay: Induction of membrane disruption in Escherichia coli ATCC 25922 assessed as rough membrane surface at 4 times of MIC after 2 hrs by SEM analysis; format: functional, organism-based
# Escherichia coli [27] = assay: Antibacterial activity against Escherichia coli ATCC 25922 after 18 hrs in presence of MgCl2 by CLSI based broth microdilution method (reference value: 4 microM); format: functional; details: ATCC 25922, 18 h
# Escherichia coli [28] = assay: Ratio of antibacterial activity against Escherichia coli ATCC 25922 in presence of NaCl to antibacterial activity against Escherichia coli ATCC 25922; format: functional
# DNA = assay: Binding affinity to Escherichia coli ATCC 25922 genomic DNA at 4 x MIC after 30 mins by agarose gel electrophoresis; format: nucleic-acid assay
# [29] = Klebsiella pneumoniae, 700603, 18 h
compound,measurement,setting,value
CCCCCC(=O)NCC(=O)N[C@@H](CC(C)C)C(=O)N[C@@H](CC(C)C)C(=O)N[C@H](CCCCN)C(=O)N[C@@H](CCCNC(=N)N)C(=O)N[C@H](C(=O)N[C@H](CCCCN)C(=O)N[C@H](C(=O)N[C@@H](CC(C)C)C(=O)N[C@@H](CC(C)C)C(N)=O)[C@@H](C)O)[C@@H](C)CC,MIC,Klebsiella pneumoniae; [29],> 128 µM
same,MIC,Staphylococcus aureus [1],> 128 µM
same,MIC,Staphylococcus aureus [2],> 128 µM
same,MIC,"Pseudomonas aeruginosa; ATCC 27853, 18 h",32 µM
same,MIC,Bacillus subtilis,16 µM
same,MIC,"Escherichia coli [3]; ATCC 43837, 18 h",> 128 µM
same,MIC,"Escherichia coli [4]; ATCC 25922, 18 h",128 µM
CN[C@H](CC(C)C)C(=O)N[C@H]1C(=O)N[C@@H](CC(N)=O)C(=O)N[C@H]2C(=O)N[C@H]3C(=O)N[C@H](C(=O)N[C@H](C(=O)O)c4cc(O)cc(O)c4-c4cc3ccc4O)[C@H](O)c3ccc(c(Cl)c3)Oc3cc2cc(c3O[C@@H]2O[C@H](CO)[C@@H](O)[C@H](O)[C@H]2O[C@H]2C[C@](C)(N)[C@H](O)[C@H](C)O2)Oc2ccc(cc2Cl)[C@H]1O [VANCOMYCIN],MIC,Klebsiella pneumoniae,inactive
same,MIC,Staphylococcus aureus [1],< 1 µM
same,MIC,Staphylococcus aureus [2],< 1 µM
same,MIC,Pseudomonas aeruginosa,inactive
same,MIC,Bacillus subtilis,< 1 µM
same,MIC,Escherichia coli [3],inactive
same,MIC,Escherichia coli [4],inactive
CC1(C)S[C@@H]2[C@H](NC(=O)Cc3ccccc3)C(=O)N2[C@H]1C(=O)O [PENICILLIN G],MIC,Klebsiella pneumoniae; [29],> 128 µM
same,MIC,Staphylococcus aureus [1],32 µM
same,MIC,Staphylococcus aureus [2],< 1 µM
same,MIC,"Pseudomonas aeruginosa; ATCC 27853, 18 h",> 128 µM
same,MIC,Bacillus subtilis,< 1 µM
same,MIC,"Escherichia coli [3]; ATCC 43837, 18 h",8 µM
same,MIC,"Escherichia coli [4]; ATCC 25922, 18 h",64 µM
CC[C@H](C)[C@H](NC(=O)[C@H](CCCNC(=N)N)NC(=O)[C@@H](CCCCN)NC(=O)[C@H](CC(C)C)NC(=O)[C@H](CC(C)C)NC(=O)CN)C(=O)N[C@H](CCCCN)C(=O)N[C@H](C(=O)N[C@@H](CC(C)C)C(=O)N[C@@H](CC(C)C)C(N)=O)[C@@H](C)O (H-GLL[dK]RI[dK]TLL-NH2),MIC,Klebsiella pneumoniae; [29],> 128 µM
same,MIC,Staphylococcus aureus [1],> 128 µM
same,MIC,Staphylococcus aureus [2],> 128 µM
same,MIC,"Pseudomonas aeruginosa; ATCC 27853, 18 h",64 µM
same,MIC,Bacillus subtilis,64 µM
same,MIC,"Escherichia coli [3]; ATCC 43837, 18 h",> 128 µM
same,MIC,"Escherichia coli [4]; ATCC 25922, 18 h",> 128 µM
CCCC(=O)NCC(=O)N[C@@H](CC(C)C)C(=O)N[C@@H](CC(C)C)C(=O)N[C@H](CCCCN)C(=O)N[C@@H](CCCNC(=N)N)C(=O)N[C@H](C(=O)N[C@H](CCCCN)C(=O)N[C@H](C(=O)N[C@@H](CC(C)C)C(=O)N[C@@H](CC(C)C)C(N)=O)[C@@H](C)O)[C@@H](C)CC,MIC,Klebsiella pneumoniae; [29],> 128 µM
same,MIC,Staphylococcus aureus [1],> 128 µM
same,MIC,Staphylococcus aureus [2],> 128 µM
same,MIC,"Pseudomonas aeruginosa; ATCC 27853, 18 h",128 µM
same,MIC,Bacillus subtilis,128 µM
same,MIC,"Escherichia coli [3]; ATCC 43837, 18 h",> 128 µM
same,MIC,"Escherichia coli [4]; ATCC 25922, 18 h",> 128 µM
CC[C@H](C)CCCCC(=O)N[C@@H](CCN)C(=O)N[C@H](C(=O)N[C@@H](CCN)C(=O)N[C@H]1CCNC(=O)[C@H]([C@@H](C)O)NC(=O)[C@H](CCN)NC(=O)[C@H](CCN)NC(=O)[C@H](CC(C)C)NC(=O)[C@@H](Cc2ccccc2)NC(=O)[C@H](CCN)NC1=O)[C@@H](C)O (X1-[Dab]T[Dab][Dab][Dab][dF]L[Dab][Dab]T; lactam 4-C),MIC,Klebsiella pneumoniae; [29],8 µM
same,Ratio,Staphylococcus aureus [5],2 - 4
same,Ratio,Escherichia coli [6],2 - 4
same,MIC,Staphylococcus aureus [1],16 µM
same,Ratio,Escherichia coli [7],2 - 4
same,Ratio,Staphylococcus aureus [8],2 - 4
same,Activity,Escherichia coli [9],inactive
same,Activity,Escherichia coli [10],Active
same,Ratio,Staphylococcus aureus [11],2 - 4
same,MIC,Staphylococcus aureus [12],16 µM
same,Activity,Escherichia coli [13],Active
same,MIC,Staphylococcus aureus [2],16 µM
same,inhibition,Staphylococcus aureus [14],Active
same,MIC,Staphylococcus aureus [15],32 µM
same,MIC,Escherichia coli [16],4 µM
same,Ratio,Escherichia coli [17],2 - 4
same,Activity,Escherichia coli [18],3.47%
same,MIC,Staphylococcus aureus [19],16 µM
same,Ratio,Staphylococcus aureus [20],2 - 4
same,MIC,Escherichia coli [21],16 µM
same,MIC,"Pseudomonas aeruginosa; ATCC 27853, 18 h",2 µM
same,Activity,Escherichia coli [22],8.49%
same,MIC,Bacillus subtilis,8 µM
same,MIC,Escherichia coli [23],16 µM
same,Activity,Escherichia coli [24],Active
same,MIC,"Escherichia coli [3]; ATCC 43837, 18 h",2 µM
same,MIC,Staphylococcus aureus [25],64 µM
same,Activity,Escherichia coli [26],Active
same,MIC,Escherichia coli [27],8 µM
same,MIC,"Escherichia coli [4]; ATCC 25922, 18 h",4 µM
same,Ratio,Escherichia coli [28],2 - 4
same,Activity,DNA,inactive
